“And” between values parts separate entries of the source, which are not always exact repeats. Equal entries are not always repeated. “Also recorded” adds a separate entry of the source.
Key:
[1] = Comparative brain/liver uptake of 14C-labeled compounds (Brain Penetration Index)
Description: The criterion used herein for measuring the extent to which a compound, from which the radical A is derived, crosses the blood-brain barrier is based on the uptake of this compound by the brain relative to its uptake by the liver. […] Measurements of the quantity of a compound present in brain and liver at 5 minutes after a subcutaneous (s.c.) injection were used to calculate a Brain Penetration Index (BPI), with the equation: [formula]
This is the amount of the compound present per gram of brain tissue as a percent of the amount per gram of liver tissue.
This procedure has the advantage that even for a sparingly soluble lipid ester, which tends to remain largely at the site of the injection and slowly diffuse into the circulation, its level in the liver will reflect the amount available rather than the initial dose injected.
The uptake of a ^14C-labeled compound into brain was compared with the uptake into liver of the same animal.
All determinations were carried out at 5 min after injection. The volumes of the injected doses into mice (body weight, 18-24 g) for the i.v., i.p., and s.c. doses were 0.15, 0.3 and 0.5 ml, respectively. […] Each tissue was homogenized in 8 ml of pyridine in a glass homogenizer.
Each labeled test compound was injected as a solution in 0.5 ml of saline (Compound 7) or in 25% propylene glycol in water (Compounds 1, 5, 6) subcutaneously (s.c.) into young adult Balb/c mice (18-24 g body weight). After 5 min (or longer) animals were sacrificed and the brain and liver removed, weighed and homogenized respectively in 8 ml and 10 ml of brain protein solvent (1 % (w/v) sodium dodecyl sulfate in 6 M urea and 19 mM EDTA, pH 7.4, 0.03 M phosphate). Aliquots (0.5 ml) of the homogenates were mixed with 10 ml of Aquasol 2 (New England Nuclear) and counted in a Beckman liquid scintillation counter. The total uptake of each compound per g brain and liver tissue was calculated. The proportion of uptake into brain as compared to liver (100%) of the same animal was designated as the Brain Penetration Index (BPI), expressed as a percentage typically at 5 min after injection.
Each of the ^14C-labeled Compounds 26, 28 and 30 were in 125 µl of the propylene glycol diluted with water up to 0.5 ml, and then injected subcutaneously into test Balb/c mice (20 ± 2 g weight). After 5 min the animals were sacrificed and the brain and liver were removed, weighed and homogenized in 8 ml and 10 ml of brain protein solvent, respectively. Next 0.5 ml aliquots were mixed with 10 ml of Aquasol 2 (New England Nuclear Corp., Boston, MA) and counted in a Beckman liquid scintillation counter. The data for the label in each tissue were used to calculate the total quantity of the compound present in brain and liver per gram of tissue. The ratio of the amount in brain as a percent of that present in liver at 5 min was taken as the Brain Penetration Index (BPI). Measurements at longer uptake times were also obtained to evaluate the accumulation of the compounds in the brain.

[2] = system: general motor activity of mice; assay: General locomotor activity of mice (Stoelting electronic activity monitor); format: in vivo, Balb/c mice; settings: for activity in the general motor activity test (in words): mice
Description: The effect of intraperitoneal (i.p.) injections of test compounds on the general motor activity of mice during a 60-min period was determined in a Stoelting electronic activity monitor. Dose-response curves were obtained from which the half-maximally effective values were calculated and the results are shown in Table V.
The compounds were dissolved in 25% (vols.) propylene glycol in water and injected i.p. into Balb/c mice (18-24 g). Dose-response measurements were obtained for 6 animals per dose or time point. Activity was monitored for 60 min using a Stoelting Electronic Activity Monitor (EAM) apparatus to assess the general motor activity of the animals.
The general locomotor activity of mice was measured in the Stolting activity monitor apparatus during 60 min after an intraperitoneal (i.p.) injection of a test compound.

[3] = system: bicuculline-induced epileptic seizures; assay: Delay of onset of bicuculline-induced seizures (anticonvulsant activity); format: in vivo, mouse; settings: for Onset of seizures: % Saline Control / Survival Time: % Saline Control: 24 hr pretreatment, bicuculline 0.3 mg/kg; for In Vivo Delay of Time of Onset of Bicuculline-induced seizures: graded 0-5
Description: In a second behavioral test, the ability of a substance to prevent or delay the onset of biculline-induced epileptic seizures was measured. […] At 24 hr after i.p. injection of the cholesteryl derivative at a dose of 30 mg/kg (64 pmol/kg), the onset of seizures was delayed by 30% after an acute i.p. injection of bicuculline at 0.3 mg/kg. […] The dexamethasone and butyl esters had no effect.
The compounds were also injected i.p. at 1, 6 and 24 hr before the administration of bicuculline (0.3 mg/kg) s.c. The latency to the onset of generalized tonic-clonic epileptic seizures and the protection against the lethality of bicuculline were measured and evaluated as a percent of the data for vehicle-injected controls. No significant changes were obtained at the 1 hr and 6 hr time points. At the 24 hr time, however, some compounds delayed while others accelerated the onset of seizures.
The effect of the compound to delay the onset of a bicuculline-induced seizures was evaluated.
The ability of a substance to delay the onset of bicuculline-induced epileptic seizures in the mouse was measured (Table X). […] At 24 hr after i.p. injection of the cholesteryl derivative (6) at a dose of 30 mg/kg (64 pmol/kg), the onset of seizures was delayed by 30% (as compared to saline controls) after an acute i.p. injection of bicuculline at 0.3 mg/kg. […] The dexamethasone and butyl esters had no effect on seizures in mice.

GABA "receptors" = assay: Inhibition of [3H]GABA binding to synaptic membranes from rat cerebellum; settings: [3H]GABA (15 nM); synaptic membrane preparations from rat cerebellum
Description: IC50 values were determined by fitting data to linearized transformations, based on including at least two concentrations of antagonists above and below the IC50, with at least triplicate replication per concentration.

CAI pyramidal cells = format: cell-based, Sprague-Dawley rats
Description: Transverse slices of hippocampus (350-375 µm thick) were prepared from Sprague-Dawley rats (200-300 g) and transferred onto a nylon net fixed over a 1.5 ml superfusion chamber. The slices were maintained at 32-33°C in a humidified atmosphere of 95%/5% 02/C02. The standard medium consisted of (in mM): NaCl, 125; KCI, 3.5; CaC12,2; MgS04, 1.5; NaH2PO4, 1; NaHC03, 24; and glucose, 10. Low chloride medium was prepared by substituting sodium isethionate for sodium chloride.
Extracellular potentials were recorded with NaCI-fitted micropipettes, and stimulus pulses were applied through bipolar platinum wire electrodes. The various drugs were dissolved in fresh medium (without glucose and phosphate) and applied to the surface of the tissue by pressure ejection from a micropipette, Sakai, Swartz and Woody, (1979).
The inhibitory effectiveness of various compounds was investigated by measuring their ability to suppress the extracellular population spike recorded from the hippocampal CAI pyramidal layer and elicited by stimulation of stratum radiatum axons. The amplitude of this monosynaptic population spike is essentially proportional to the number of pyramidal cells discharging in response to a stimulus volley, Andersen, Bliss and Skrede, (1971).
The various compounds were applied as droplets to the pyramidal layer approximately 75 µm from the recording electrode. The volume of a single drug application was about 300 picoliters. […] The volume ejected from each pipette was calibrated prior to use by measuring the diameter of the ejected droplet and adjusting the duration of the pressure pulse (usually 100-500 msec) until a standard diameter was reached. A constant droplet volume was used throughout the experiments. Where dose-response information was required, several pipettes with different drug concentrations were used.

[4] = system: general motor activity of mice; assay: General locomotor activity of mice (Stoelting electronic activity monitor); format: in vivo, Balb/c mice; settings: 500 µg administered intracisternally directly into the cerebrospinal fluid
general motor activity = settings: systemically injected doses of up to 1 g/kg (9.7 mmol/kg); previous experiments; cited from earlier work
[5] = 260 μmol/kg s.c., 5 min, mice, mean ± S.E.M. (n = 3)
[6] = Table IX summary, 5-min Brain Penetration Index
[7] = Table VI, 270 μmol/kg s.c., 5 min, Balb/c mice

CC/C=C\C/C=C\C/C=C\CCCCCCCCOC(=O)CCCN [Compound 5, Linolenoyl Ester of y-aminobutyric Acid]
(BRAIN) [1, 5]: 3.5 ± 0.4 nmol/g
(LIVER) [1, 5]: 141.7 ± 8 nmol/g
BPI [1, 5]: 2 ± 0.6%
(BRAIN) ([1]; 260 μmol/kg s.c., 15 min, mice): 11.0 nmol/g
(LIVER) ([1]; 260 μmol/kg s.c., 15 min, mice): 220.8 nmol/g
BPI ([1]; 260 μmol/kg s.c., 15 min, mice): 5%
(BRAIN) ([1]; 260 μmol/kg s.c., 45 min, mice): 24.9 nmol/g
(LIVER) ([1]; 260 μmol/kg s.c., 45 min, mice): 33.3 nmol/g
BPI ([1]; 260 μmol/kg s.c., 45 min, mice): 75%
increase of 5-min BPI over GABA ([1]; 5 min after s.c. injection, relative to GABA): 2 fold
BPI [1, 6]: 2
accumulation of radioactivity in brain persisted post-injection ([1]; s.c., mice): 45 to 60 min
activity in the general motor activity test (in words) ([2]; i.p., listed as linolenyl ester): not active
activity in the general motor activity test (in words) ([2]; i.p., listed as linolenyl ester of GABA): insignificant effect; also recorded: no significant effect
Onset of seizures: % Saline Control ([3]; 12 mg/kg): 102 ± 4 % Saline Control
Survival Time: % Saline Control ([3]; 12 mg/kg): 118 ± 10 % Saline Control
Onset of seizures: % Saline Control ([3]; 17 mg/kg): 73 ± 15 % Saline Control
Survival Time: % Saline Control ([3]; 17 mg/kg): 111 ± 14 % Saline Control
Onset of seizures: % Saline Control ([3]; 25 mg/kg): 78 ± 9 % Saline Control
Survival Time: % Saline Control ([3]; 25 mg/kg): 68 ± 9 % Saline Control
Onset of seizures: % Saline Control ([3]; 36 mg/kg): 50 ± 5 % Saline Control
Survival Time: % Saline Control ([3]; 36 mg/kg): 62 ± 6 % Saline Control
Onset of seizures: % Saline Control ([3]; 50 mg/kg): 40 ± 11 % Saline Control
Survival Time: % Saline Control ([3]; 50 mg/kg): 63 ± 8 % Saline Control
acceleration of seizure onset time ([3]; 50 mg/kg, 24 hr, listed as linolenyl ester of GABA): 70% and 60%
In Vivo Delay of Time of Onset of Bicuculline-induced seizures [3]: 0
IC50 (GABA "receptors"): 40 µM

NCCCC(=O)O [GABA, gamma-aminobutyric acid, reference compound]
(BRAIN) ([1]; 30 μmol/kg i.v., 5 min, mouse): 0.04 nmol/g
(LIVER) ([1]; 30 μmol/kg i.v., 5 min, mouse): 4.2 nmol/g
BPI (5 min) ([1]; 30 μmol/kg i.v., 5 min, mouse): 0.95%
(BRAIN) ([1]; 60 μmol/kg i.p., 5 min, mouse): 0.23 nmol/g
(LIVER) ([1]; 60 μmol/kg i.p., 5 min, mouse): 29 nmol/g
BPI (5 min) ([1]; 60 μmol/kg i.p., 5 min, mouse): 0.80%
(BRAIN) ([1]; 120 μmol/kg i.p., 5 min, mouse): 0.45 nmol/g
(LIVER) ([1]; 120 μmol/kg i.p., 5 min, mouse): 46 nmol/g
BPI (5 min) ([1]; 120 μmol/kg i.p., 5 min, mouse): 1.00%
(BRAIN) ([1]; 160 μmol/kg i.p., 5 min, mouse): 0.66 nmol/g
(LIVER) ([1]; 160 μmol/kg i.p., 5 min, mouse): 71 nmol/g
BPI (5 min) ([1]; 160 μmol/kg i.p., 5 min, mouse): 0.93%
(BRAIN) ([1]; 210 μmol/kg i.p., 5 min, mouse): 0.83 nmol/g
(LIVER) ([1]; 210 μmol/kg i.p., 5 min, mouse): 83 nmol/g
BPI (5 min) ([1]; 210 μmol/kg i.p., 5 min, mouse): 1.00%
(BRAIN) ([1]; 270 μmol/kg s.c., 5 min, mouse): 1.03 nmol/g
(LIVER) ([1]; 270 μmol/kg s.c., 5 min, mouse): 104 nmol/g
BPI (5 min) ([1]; 270 μmol/kg s.c., 5 min, mouse): 1.00%
(BRAIN) ([1]; 380 μmol/kg s.c., 5 min, mouse): 1.81 nmol/g
(LIVER) ([1]; 380 μmol/kg s.c., 5 min, mouse): 165 nmol/g
BPI (5 min) ([1]; 380 μmol/kg s.c., 5 min, mouse): 1.10%
BPI [1, 6]: 1
(BRAIN) [1, 7]: 1.03 nmol/g
(LIVER) [1, 7]: 104 nmol/g
BPI ([1]; Table VI, 270 μmol/kg s.c., 5 min, Balb/c mice, mean ± S.E.M.): 1±.09%
effect on general motor activity ([2]; 1.94 mmol/kg, i.p.): no significant effect
effect on general locomotor activity ([2]; dose of 9.7 mmol/kg (1 g/kg)): no significant effect
In Vivo Delay of Time of Onset of Bicuculline-induced seizures [3]: 0
effect after incubation of slices in PMSF (0.5 mM) for about 45 min (CAI pyramidal cells): no change
effect with picrotoxin (10 µM) in the medium or low chloride medium (CAI pyramidal cells): little effect
recovery of the population spike amplitude to 90% of the pre-droplet control value (CAI pyramidal cells; after an approximately half-maximal dose): 1 to 2 min
time until recovery was usually complete (CAI pyramidal cells; after droplet application): 2 to 3 min
effect on general motor activity [4]: no significant effect
effect on motor activity in rats (general motor activity): little effect
